Source: US20240408216A1, “PROTEIN INHIBITOR OR DEGRADING AGENT, PHARMACEUTICAL COMPOSITION CONTAINING SAME AND PHARMACEUTICAL USE” (JING MEDICINE TECHNOLOGY (SHANGHAI) LTD., priority 2021, published 2024)
Where two headings read alike, the source gives them in different places.

Legend:
human EGFR-LTC = biological target: T1, human EGFR-LTC (Homo sapiens, UniProt P00533, C797S/L858R/T790M); assay: EGFR protein abundance assay (Western blotting), EGFR-LTC; type: cell-based; conditions: Ba/F3 cells expressing human EGFR-LTC, 24 h, Western blot
T1 construct: expressed in transfected cells
Description: (§1) Mouse Ba/F3 cells stably expressing human EGFR-DTC, EGFR-LTC, or EGFR-DC were transferred to Petri dishes with RPMI-1640 medium (Gibco, Product No. 11875093) containing 10% fetal bovine serum (FBS, Biological Industries, Product No. 04-001-1A) and 0.1% penicillin/streptomycin (P/S) and incubated in an aseptic incubator at 37° C., 95% relative humidity, and 5% CO2. Cells at the logarithmic growth phase were taken and seeded at a density of 50000 cells/well in 12-well plates (Corning, Product No. 3513) containing 1 mL of medium per well. After 24 h, the compounds disclosed herein with different concentrations were added to the wells at a final DMSO concentration of 0.1%. After 24 h, cells were lysed in SDS lysis buffer (1.45 g of SDS, 0.2 g of Tris base, 6 mL of glycerol, 20 mg of bromophenol blue, 310 mg DTT; brought to 40 mL with d2H2O), and the EGFR levels were detected and analyzed by Western Blotting (immunoblotting) using standard molecular biological techniques. Cell lysates were boiled at 95° C. for 8 min, mixed and centrifuged. The total cell proteins in the lysates were subjected to SDS-PAGE (GenScript, Product No. M00654), transferred to NC membranes (GE, Product No. 1060002) by blotting, incubated in a blocking buffer (TAKARA, Product No. T7131A) at room temperature for 60 min, and co-incubated overnight at 4° C. with the following primary antibodies: anti-EGFR (#4267S, 1:1000), anti-phoso-EGFR (#3777S, 1:1000), anti-GAPDH (#5174S, 1:10000), anti-Actin (#5125 S, 1:10000) (all purchased from Cell Signaling Technology). The samples were washed three times with TBST at room temperature, each for 10 min, and then incubated for 60 minutes in a blocking buffer containing a secondary antibody (#7074S, 1:10000, purchased from Cell Signaling Technology) at room temperature. The samples were washed three times with TBST at room temperature, each for 10 min. Chemiluminescent substrates were added, and an Azure c300 system was used for imaging.

human EGFR-DTC = assay: EGFR protein abundance assay (Western blotting), EGFR-DTC; type: cell-based; conditions: Ba/F3 cells expressing human EGFR-DTC, 24 h, Western blot
Description: as §1

BaF3 patent = assay: Cell proliferation IC50 assay (Cell Titer GLO), BaF3 parental cells; type: cell-based; conditions: Mus musculus, Table 5, 10 ng/ml mIL3, 72 h
Description: (§2) IC50 of compounds in the present invention was determined by Cell Titer GLO reagent from Promega. The procedures are as follows:
(§3) Tumor cells were cultured in specified medium in an incubator at 37° C. and 5% CO2. The cells were passaged periodically. Cells at the logarithmic growth phase were collected for plating at a density of 2000-4000 cells/well. The next day, the compounds of the present invention were serially diluted and added to the cells, with DMSO being the negative control and the culture media without cells being the blank control. The plate was incubated in the incubator for 72 h. The cell viability assay was performed by adding the detection reagents to the cell culture media according to Cell Titer GLO reagent instructions and detecting luminescent signals on an EnVision microplate reader (PerkinElmer).
(§4) Inhibition of cell growth by the compounds of the present invention was plotted by Prism Graphpad software for statistically calculating the IC50 of the compound of the present invention.

DT = assay: Cell proliferation IC50 assay (Cell Titer GLO), DT cells; type: cell-based; conditions: Mus musculus; Table 7; DT cells (BaF3 with EGFR mutant), 72 h
Description: as §2, §3, §4

LT = assay: Cell proliferation IC50 assay (Cell Titer GLO), LT cells; type: cell-based; conditions: Mus musculus; Table 7; LT cells (BaF3 with EGFR mutant), 72 h
Description: as §2, §3, §4

[1] = system: BaF3 (EGFR Del19/T790M/C797S); assay: Cell proliferation IC50 assay (Cell Titer GLO), BaF3 DTC cells; type: cell-based; conditions: Mus musculus, Ba/F3 EGFR-Del19/T790M/C797S
How it was run: (§5)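 Cells plated at 2000-4000 per well, next day given serially diluted compound, then grown 72 h at 37 °C, 5% CO2. Viability by CellTiter-Glo luminescence versus DMSO control; IC50 from growth-inhibition curves.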

[2] = system: BaF3 (EGFR L858R/T790M/C797S); assay: Cell proliferation IC50 assay (Cell Titer GLO), BaF3 LTC cells; type: cell-based; conditions: Mus musculus, Ba/F3 EGFR
How it was run: as §5

BaF3 (EGFR WT) = assay: Cell proliferation IC50 assay (Cell Titer GLO), BaF3 WT cells; type: cell-based; conditions: Mus musculus, Ba/F3 EGFR, 72 h
How it was run: as §5

A431 = assay: Cell proliferation IC50 assay (Cell Titer GLO), A431 cells; type: cell-based; conditions: Homo sapiens, A-431, A431, 72 h, read-out: A431 IC50
How it was run: as §5

BaF3 (EGFR Del19/C797S) = biological target: T2, BaF3 (EGFR Del19/C797S) (Homo sapiens, UniProt P00533, C797S, cells depend on it, form not given); assay: Cell proliferation IC50 assay (Cell Titer GLO), BaF3 DC cells; type: cell-based, mouse; conditions: Table 7, 72 h
T2 construct: BaF3 (EGFR Del19/C797S)|DC|RPMI1640 + 10% FBS
How it was run: as §5

BaF3 (EGFR Del19) = BaF3 (EGFR Del19) (Homo sapiens, UniProt P00533, cells depend on it, form not given); assay: Cell proliferation IC50 assay (Cell Titer GLO), BaF3 D cells; type: cell-based, mouse; conditions: Table 7, 72 h
Description: as §2, §3, §4

BaF3 (EGFR L858R/C797S) = BaF3 (EGFR L858R/C797S) (Homo sapiens, UniProt P00533, C797S/L858R, cells depend on it); assay: Cell proliferation IC50 assay (Cell Titer GLO), BaF3 LC cells; type: cell-based, mouse; conditions: Table 7, 72 h
Description: as §2, §3, §4

BaF3 (EGFR L858R) = BaF3 (EGFR L858R) (Homo sapiens, UniProt P00533, L858R, cells depend on it); assay: Cell proliferation IC50 assay (Cell Titer GLO), BaF3 L cells; type: cell-based, mouse; conditions: Table 7, 72 h
Description: as §2, §3, §4

T1 sequence (P00533 25-1210 T790M/C797S/L858R): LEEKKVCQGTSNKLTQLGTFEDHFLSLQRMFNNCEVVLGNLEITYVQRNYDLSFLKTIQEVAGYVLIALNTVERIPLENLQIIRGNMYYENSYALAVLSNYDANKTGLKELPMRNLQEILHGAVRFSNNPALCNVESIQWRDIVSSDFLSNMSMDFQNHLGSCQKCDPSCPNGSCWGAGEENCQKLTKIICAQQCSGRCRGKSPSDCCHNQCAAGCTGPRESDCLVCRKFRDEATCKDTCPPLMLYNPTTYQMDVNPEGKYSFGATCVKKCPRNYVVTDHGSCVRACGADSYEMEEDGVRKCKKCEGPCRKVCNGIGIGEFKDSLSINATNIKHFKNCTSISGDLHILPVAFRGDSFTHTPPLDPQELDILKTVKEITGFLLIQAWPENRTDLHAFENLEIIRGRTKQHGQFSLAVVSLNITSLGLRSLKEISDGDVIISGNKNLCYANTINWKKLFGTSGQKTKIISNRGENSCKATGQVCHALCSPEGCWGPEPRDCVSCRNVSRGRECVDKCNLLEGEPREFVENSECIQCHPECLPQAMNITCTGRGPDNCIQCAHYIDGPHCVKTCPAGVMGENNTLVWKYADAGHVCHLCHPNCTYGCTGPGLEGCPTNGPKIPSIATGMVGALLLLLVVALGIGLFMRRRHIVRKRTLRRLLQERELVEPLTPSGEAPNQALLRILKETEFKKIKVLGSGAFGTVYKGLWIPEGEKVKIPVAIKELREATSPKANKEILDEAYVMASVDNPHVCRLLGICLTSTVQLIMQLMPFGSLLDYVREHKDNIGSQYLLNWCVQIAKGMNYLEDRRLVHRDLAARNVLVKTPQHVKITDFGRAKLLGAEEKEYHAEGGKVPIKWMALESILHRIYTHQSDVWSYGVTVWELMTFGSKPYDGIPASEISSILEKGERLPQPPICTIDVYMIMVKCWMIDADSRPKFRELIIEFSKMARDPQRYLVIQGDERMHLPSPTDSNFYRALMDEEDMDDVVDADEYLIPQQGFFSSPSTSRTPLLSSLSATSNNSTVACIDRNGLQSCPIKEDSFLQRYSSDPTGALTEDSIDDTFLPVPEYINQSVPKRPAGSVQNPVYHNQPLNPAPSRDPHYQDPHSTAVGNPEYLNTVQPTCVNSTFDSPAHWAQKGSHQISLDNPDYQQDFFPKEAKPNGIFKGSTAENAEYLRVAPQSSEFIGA
T2 sequence (P00533 with tags, fused parts or gaps DEL746-750/C797S, form open): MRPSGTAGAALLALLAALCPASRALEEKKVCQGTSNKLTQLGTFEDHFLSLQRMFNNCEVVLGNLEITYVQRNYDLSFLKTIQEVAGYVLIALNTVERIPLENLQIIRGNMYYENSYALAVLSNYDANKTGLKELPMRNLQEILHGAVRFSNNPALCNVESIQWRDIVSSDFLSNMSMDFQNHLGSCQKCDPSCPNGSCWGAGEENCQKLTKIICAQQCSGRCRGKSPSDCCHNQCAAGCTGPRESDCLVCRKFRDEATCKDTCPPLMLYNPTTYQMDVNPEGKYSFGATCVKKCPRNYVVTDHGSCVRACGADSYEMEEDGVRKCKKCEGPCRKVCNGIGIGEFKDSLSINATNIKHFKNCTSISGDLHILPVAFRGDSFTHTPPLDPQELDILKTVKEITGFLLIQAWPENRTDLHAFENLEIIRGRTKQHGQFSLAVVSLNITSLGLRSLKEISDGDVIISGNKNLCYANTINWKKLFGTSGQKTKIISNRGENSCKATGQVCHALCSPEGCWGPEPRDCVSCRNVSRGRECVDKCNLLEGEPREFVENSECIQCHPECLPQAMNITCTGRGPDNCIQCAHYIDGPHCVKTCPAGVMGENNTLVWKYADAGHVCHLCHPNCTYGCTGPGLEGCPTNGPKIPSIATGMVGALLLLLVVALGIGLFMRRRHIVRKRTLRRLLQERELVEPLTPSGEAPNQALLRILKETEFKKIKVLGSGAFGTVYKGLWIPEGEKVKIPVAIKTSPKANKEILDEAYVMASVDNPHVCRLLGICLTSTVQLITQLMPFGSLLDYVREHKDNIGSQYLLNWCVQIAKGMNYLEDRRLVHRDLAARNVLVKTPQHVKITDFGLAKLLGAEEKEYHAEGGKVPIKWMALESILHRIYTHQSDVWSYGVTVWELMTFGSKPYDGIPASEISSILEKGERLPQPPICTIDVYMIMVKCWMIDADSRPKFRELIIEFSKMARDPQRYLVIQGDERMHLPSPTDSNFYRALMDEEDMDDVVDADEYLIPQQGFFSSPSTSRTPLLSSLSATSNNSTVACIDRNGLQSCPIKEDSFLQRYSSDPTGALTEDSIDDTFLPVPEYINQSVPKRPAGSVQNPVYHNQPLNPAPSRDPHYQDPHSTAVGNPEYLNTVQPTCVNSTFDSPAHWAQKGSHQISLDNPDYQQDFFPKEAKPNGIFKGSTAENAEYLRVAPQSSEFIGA
Chain of BaF3 (EGFR Del19) (P00533 with tags, fused parts or gaps DEL746-750): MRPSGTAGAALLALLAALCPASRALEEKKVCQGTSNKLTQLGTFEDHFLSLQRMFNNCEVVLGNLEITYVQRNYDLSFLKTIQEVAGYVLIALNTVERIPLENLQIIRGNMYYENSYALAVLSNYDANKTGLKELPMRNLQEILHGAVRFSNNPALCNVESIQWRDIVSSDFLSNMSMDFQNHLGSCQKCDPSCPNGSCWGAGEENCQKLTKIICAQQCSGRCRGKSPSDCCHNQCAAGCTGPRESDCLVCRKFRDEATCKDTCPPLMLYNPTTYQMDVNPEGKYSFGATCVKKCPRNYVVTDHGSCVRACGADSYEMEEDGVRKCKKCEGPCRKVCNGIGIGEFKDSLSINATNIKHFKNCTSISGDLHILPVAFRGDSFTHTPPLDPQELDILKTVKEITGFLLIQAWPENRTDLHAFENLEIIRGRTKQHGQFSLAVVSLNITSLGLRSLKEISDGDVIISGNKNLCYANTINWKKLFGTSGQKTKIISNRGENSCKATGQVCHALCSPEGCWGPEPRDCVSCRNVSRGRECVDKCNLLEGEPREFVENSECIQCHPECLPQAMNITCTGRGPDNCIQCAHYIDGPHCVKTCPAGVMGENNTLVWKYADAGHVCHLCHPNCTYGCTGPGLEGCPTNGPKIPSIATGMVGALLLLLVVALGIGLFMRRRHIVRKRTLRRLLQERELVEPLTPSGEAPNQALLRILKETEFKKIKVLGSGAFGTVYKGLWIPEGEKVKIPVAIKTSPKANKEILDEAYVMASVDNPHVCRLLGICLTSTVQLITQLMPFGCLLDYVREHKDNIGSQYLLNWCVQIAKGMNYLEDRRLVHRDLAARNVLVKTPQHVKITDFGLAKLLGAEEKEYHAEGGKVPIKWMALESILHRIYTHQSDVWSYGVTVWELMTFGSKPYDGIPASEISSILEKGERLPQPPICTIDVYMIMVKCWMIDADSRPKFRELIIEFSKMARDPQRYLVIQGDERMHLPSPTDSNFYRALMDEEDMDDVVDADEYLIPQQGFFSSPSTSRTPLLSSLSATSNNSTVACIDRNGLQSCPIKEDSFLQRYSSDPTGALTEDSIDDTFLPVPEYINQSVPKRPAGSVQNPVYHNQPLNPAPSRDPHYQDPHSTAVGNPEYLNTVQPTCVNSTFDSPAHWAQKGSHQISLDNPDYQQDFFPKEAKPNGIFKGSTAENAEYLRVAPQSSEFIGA
Chain of BaF3 (EGFR L858R/C797S) (P00533 whole entry C797S/L858R): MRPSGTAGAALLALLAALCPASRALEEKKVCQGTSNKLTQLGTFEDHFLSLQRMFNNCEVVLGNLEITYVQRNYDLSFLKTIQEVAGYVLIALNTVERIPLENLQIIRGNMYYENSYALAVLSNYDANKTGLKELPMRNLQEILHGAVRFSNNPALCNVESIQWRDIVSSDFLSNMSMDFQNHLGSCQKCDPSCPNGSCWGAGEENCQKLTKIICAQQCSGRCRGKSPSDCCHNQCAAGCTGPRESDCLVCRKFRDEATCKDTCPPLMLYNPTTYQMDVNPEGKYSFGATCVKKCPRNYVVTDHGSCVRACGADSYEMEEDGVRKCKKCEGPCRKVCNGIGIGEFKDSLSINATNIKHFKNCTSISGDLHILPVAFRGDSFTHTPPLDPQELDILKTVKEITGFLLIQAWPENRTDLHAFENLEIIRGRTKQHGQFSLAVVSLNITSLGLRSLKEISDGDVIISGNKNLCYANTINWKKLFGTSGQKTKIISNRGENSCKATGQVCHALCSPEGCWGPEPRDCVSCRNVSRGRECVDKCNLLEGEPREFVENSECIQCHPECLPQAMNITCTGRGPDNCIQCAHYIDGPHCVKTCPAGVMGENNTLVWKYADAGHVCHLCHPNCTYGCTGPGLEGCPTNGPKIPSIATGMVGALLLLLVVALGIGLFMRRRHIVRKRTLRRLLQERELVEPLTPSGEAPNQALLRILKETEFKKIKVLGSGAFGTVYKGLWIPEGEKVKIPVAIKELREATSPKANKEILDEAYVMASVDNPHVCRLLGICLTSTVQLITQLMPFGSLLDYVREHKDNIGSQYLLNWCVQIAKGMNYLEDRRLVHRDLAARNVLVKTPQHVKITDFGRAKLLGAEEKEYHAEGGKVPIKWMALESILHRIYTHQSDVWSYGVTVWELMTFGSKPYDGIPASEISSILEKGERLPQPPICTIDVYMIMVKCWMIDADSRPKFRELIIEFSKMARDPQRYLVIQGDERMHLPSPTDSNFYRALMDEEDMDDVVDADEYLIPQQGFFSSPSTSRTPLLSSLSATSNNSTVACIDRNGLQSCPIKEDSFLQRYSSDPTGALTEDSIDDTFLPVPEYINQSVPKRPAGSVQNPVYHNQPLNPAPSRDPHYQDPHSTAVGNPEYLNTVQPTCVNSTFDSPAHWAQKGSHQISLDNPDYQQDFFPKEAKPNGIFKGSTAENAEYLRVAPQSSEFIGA

Row | Structure (SMILES) | IC50 ([1]; Table 5, 72 h) | IC50 ([2]; Table 5, 72 h) | IC50 (BaF3 (EGFR WT); Table 5, 10 ng/ml EGF) | IC50 (A431; Table 5) | IC50 (BaF3 patent) | also measured
1 | CCc1cc(Nc2ncc(Cl)c(Nc3ccccc3P(C)(C)=O)n2)c(OC)cc1N1CCC(N2CCN(CCC#Cc3cccc4c3CN(C3CCC(=O)NC3=O)C4=O)CC2)CC1 (single isomer, unassigned) [Example E5] |  |  |  |  |  | DC50 (human EGFR-LTC): < 1 nM; EGFR-LTC Dmax (human EGFR-LTC): 93%; DC50 (human EGFR-DTC): 9.31 nM; EGFR-DTC Dmax (human EGFR-DTC): 86%
2 | CCc1cc(Nc2ncc(Cl)c(Nc3ccccc3P(C)(C)=O)n2)c(OC)cc1N1CCC(N2CCN(CCC#Cc3cccc4c3CN(C3CCC(=O)NC3=O)C4=O)CC2)CC1 (single isomer, unassigned) [Example E6] |  |  |  |  |  | DC50 (human EGFR-LTC): 10.1 nM; EGFR-LTC Dmax (human EGFR-LTC): 89%; DC50 (human EGFR-DTC): 3.37 nM; EGFR-DTC Dmax (human EGFR-DTC): 70%
3 | COc1cc(N2CCC(N3CCN(CCC#Cc4cccc5c4CN(C4CCC(=O)NC4=O)C5=O)CC3)CC2)ccc1Nc1ncc(Cl)c(Nc2ccccc2P(C)(C)=O)n1 (stereo not shown) [Example C-2, reference compound] |  |  |  |  | 73.8 nM | IC50 (DT): 13.3 nM; IC50 (LT): 20.9 nM
4 | CCc1cc(Nc2ncc(Cl)c(Nc3ccccc3P(C)(C)=O)n2)c(OC)cc1N1CCC2(CCN(CCCC#Cc3ccc4c(c3)CN(C3CCC(=O)NC3=O)C4=O)CC2)CC1 (stereo not shown) [Example E16] | 55.6 nM | 348 nM | > 4000 nM | > 4000 nM | > 4000 nM | 
5 | CP(C)(=O)c1ccccc1Nc1nc(Nc2ccc(N3CCC4(CCN(CCCC#Cc5cccc6c5CN(C5CCC(=O)NC5=O)C6=O)CC4)CC3)c(Cl)c2)ncc1Cl (stereo not shown) [Example E18] | 30.9 nM | 266 nM | 724 nM | 2180 nM | 786 nM | 
6 | CCc1cc(Nc2ncc(Cl)c(Nc3ccccc3P(C)(C)=O)n2)c(OC)cc1N1CCC(N2CCN(CCC#Cc3ccc4c(c3)CN(C3CCC(=O)NC3=O)C4=O)CC2)CC1 (stereo not shown) [Example E24] | 35.4 nM | 70.6 nM | 1550 nM | 1460 nM | 1260 nM | 
7 | CCc1cc(Nc2ncc(Cl)c(Nc3ccccc3P(C)(C)=O)n2)c(OC)cc1N1CCC(N2CC3(CCC(Oc4cccc5c4CN(C4CCC(=O)NC4=O)C5=O)CC3)C2)CC1 (stereo not shown) [Example E29] | 14 nM | 20.9 nM | 1000 nM | 1020 nM | 1370 nM | 
8 | CCc1cc(Nc2ncc(-c3cnn(C)c3)c(Nc3ccccc3P(C)(C)=O)n2)c(OC)cc1N1CCC(N2CCN(CCOc3cccc4c3CN(C3CCC(=O)NC3=O)C4=O)CC2)CC1 (stereo not shown) [Example E158] |  |  |  |  |  | IC50 (BaF3 (EGFR Del19/C797S)): 0.1 nM; GI50 (BaF3 (EGFR Del19)): 0.2 nM; IC50 ([1]; Table 6, 72 h): 33 nM; IC50 ([2]; Table 6, 72 h): 2760 nM; IC50 (DT): 15.3 nM; IC50 (BaF3 (EGFR WT); Table 6, 10 ng/ml EGF): 730 nM; IC50 (LT): 69.1 nM; GI50 (BaF3 (EGFR L858R/C797S)): 1.3 nM; IC50 (A431; Table 6): ≥ 1200 nM; GI50 (BaF3 (EGFR L858R)): 0.6 nM

Further lines, with some results ahead:

Row | IC50 ([1]; Table 5, 72 h) | IC50 ([2]; Table 5, 72 h) | IC50 (BaF3 (EGFR WT); Table 5, 10 ng/ml EGF) | IC50 (A431; Table 5) | Structure (SMILES) | IC50 (BaF3 patent) | also measured
9 | 7.8 nM | 55.2 nM | 69 nM | 377 nM | CN(CCCC#Cc1cccc2c1CN(C1CCC(=O)NC1=O)C2=O)C1CC2(CCN(c3ccc(Nc4ncc(Cl)c(Nc5ccccc5P(C)(C)=O)n4)cc3Cl)CC2)C1 (stereo not shown) [Example E14] | 84.2 nM | 
10 | 3.7 nM | 15.5 nM | 25.1 nM | 283 nM | CP(C)(=O)c1ccccc1Nc1nc(Nc2ccc(N3CCC(N4CCN(CCC#Cc5cccc6c5CN(C5CCC(=O)NC5=O)C6=O)CC4)CC3)c(Cl)c2)ncc1Cl (stereo not shown) [Example E17] | 23.4 nM | 
11 | 8.9 nM | 61.1 nM | > 4000 nM | 1070 nM | CCc1cc(Nc2ncc(Cl)c(Nc3ccccc3P(C)(C)=O)n2)c(OC)cc1N1CCC(N2CCN(CCCCCc3cc4c(cc3F)C(=O)N(C3CCC(=O)NC3=O)C4)CC2)CC1 (stereo not shown) [Example E19] | > 4000 nM | 
12 | 1.9 nM | 16.8 nM | 636 nM | 1010 nM | CCc1cc(Nc2ncc(Cl)c(Nc3ccccc3P(C)(C)=O)n2)c(OC)cc1N1CCC(N2CCC3(CCC(Oc4cccc5c4CN(C4CCC(=O)NC4=O)C5=O)CC3)C2)CC1 (stereo not shown) [Example E21] | 410 nM | 
13 | 9.4 nM | 106 nM | > 4000 nM | > 4000 nM | CCc1cc(Nc2ncc(Cl)c(Nc3ccccc3P(C)(C)=O)n2)c(OC)cc1N1CCC2(CCN(CCCCC#Cc3cccc4c3CN(C3CCC(=O)NC3=O)C4=O)CC2)CC1 (stereo not shown) [Example E23] | > 4000 nM | 
14 | 13.7 nM | 57.2 nM | 1370 nM | 1260 nM | CCc1cc(Nc2ncc(Cl)c(Nc3ccccc3P(C)(C)=O)n2)c(OC)cc1N1CCC(N2CCN(CC#Cc3cccc4c3CN(C3CCC(=O)NC3=O)C4=O)CC2)CC1 (stereo not shown) [Example E25] | 1210 nM | 
15 | 8 nM | 53.5 nM | 517 nM | 1090 nM | CCc1cc(Nc2ncc(Cl)c(Nc3ccccc3P(C)(C)=O)n2)c(OC)cc1N1CCC(N2CCN(CCCc3cccc4c3CN(C3CCC(=O)NC3=O)C4=O)CC2)CC1 (stereo not shown) [Example E26] | 546 nM | 
16 | 3.3 nM | 29.8 nM | 937 nM | 1190 nM | COc1cc(N2CCC(N3CCC4(CCC(Oc5cccc6c5CN(C5CCC(=O)NC5=O)C6=O)CC4)C3)CC2)c(C2CC2)cc1Nc1ncc(Cl)c(Nc2ccccc2P(C)(C)=O)n1 (stereo not shown) [Example E27] | 375 nM | 
17 | 11.2 nM | 57.9 nM | 955 nM | 1390 nM | CCc1cc(Nc2ncc(Br)c(Nc3ccc4c(c3P(C)(C)=O)OCCO4)n2)c(OC)cc1N1CCC2(CCN(CCCC#Cc3cccc4c3CN(C3CCC(=O)NC3=O)C4=O)CC2)CC1 (stereo not shown) [Example E28] | 695 nM | 
18 | 1.6 nM | 11.9 nM | 636 nM | 1020 nM | CCc1cc(Nc2ncc(Cl)c(Nc3ccccc3P(C)(C)=O)n2)c(OC)cc1N1CCC(N2CCN(CCCCOc3cccc4c3CN(C3CCC(=O)NC3=O)C4=O)CC2)CC1 (stereo not shown) [Example E30] | 410 nM | 
